Values of other authors as cited in patent US20160367620A1, “GLUTATHIONE” (priority 2015, published 2016).

Legend:
[1] = test system: NFκB activation by LPS; details: rats; cited from earlier work
[2] = test system: HIV-1 LTR; details: Jurkat cells; cited from earlier work
[3] = test system: human alveolar macrophages (AM); details: AM previously exposed to LPS; cited from earlier work
[4] = test system: HUVEC and QG90 cell; details: pretreatment of HUVEC, IL-1 induced; cited from earlier work
[5] = test system: NFκB and COX-2; details: cited from earlier work
[6] = test system: influenza virus specific lymphocytes; details: cited from earlier work
[7] = test system: human immunodeficiency virus (HIV) expression; details: U1 cells; cited from earlier work
[8] = test system: murine macrophage J774 cells; details: pretreatment; cited from earlier work
[9] = test system: human IL-4 production; details: stimulated peripheral blood T cells, Th0- and Th2-like T cell clones; cited from earlier work

CC(=O)N[C@@H](CS)C(=O)O [NAC, N-Acetyl-L-Cysteine]
NFκB activation by LPS [1]: decreased
decrease of lung lavage neutrophil count [1]: six fold
induction of HIV-1 LTR-mediated gene expression by TNF-α and Tat [2]: significantly suppressed
IL-12 secretion [3]: enhanced
cell-to-cell attachment of cancer cells to HUVEC [4]: efficiently blocked the cell-to-cell attachment in a dose-dependent manner
activation of NFκB and COX-2 by H. pylori infection [5]: inhibited
IFN γ production [6]: increased
influenza virus specific lymphocyte proliferation [6]: increased
specific activity of influenza specific CD8+ CTL's [6]: enhanced
cytotoxic or cytostatic effects [7]: absence of cytotoxic or cytostatic effects
induction of HIV expression mediated by PMA, TNF-α, or IL-6 [7]: suppressed in a dose-dependent fashion
protection of macrophages against SNAP [8]: protected
human IL-4 production [9]: decreased in a dose-dependent manner
